# Measured values published in US8883856B2, “Compositions and methods for the treatment of inflammatory diseases using topoisomerase inhibitors” (priority 2000, dated 2014).
# pIC50: −log10 of the molar value. Read-outs that look alike come from different tables or passages of the source.
# Experiments:
# surgical adhesions = type: in vivo; conditions: drug-loaded crosslinked HA films (camptothecin 2.5%, doxorubicin 2.5%, beta-lapachone 5%, curcumin 10%), rats
# Procedure: The rat caecal-sidewall adhesion model was used to test efficacy of crosslinked hyaluroinc acid (HA) polymeric films loaded with one of the following compounds; camptothecin 2.5% loading (w/w to polymer), curcumin 10%, doxorubicin 2.5%, beta-lapachone at 5% or unloaded-no-drug control. Films of 2-2.5 cm^2 were prepared with each drug by the method described in example 10. ETO sterilized, and divided in half at the time of surgical implantation. Sham surgeries omitted the application of HA film as separate controls.
# Sprague Dawley rats, 15 male and 15 female, weighing 250-400 g were anaesthetized with Halothane (5%) and maintained, by nose cone, on 1.5-2% Halothane. Surgeries were conducted under sterile conditions. The abdomen was shaved, scrubbed with an antiseptic wash, and opened at the linea alba with a 3 cm incision. A region of the abdominal cavity immediately opposite the large bowel was isolated with bowel clamps, and a #11 scalpel blade was used to score a section of the transversus muscle, describing a rectangle 1×1.5 cm. The muscle was stripped from the peritoneal sidewall with forceps, and minor bleeding was arrested by tamponade. The large bowel was then externalized with sterile swabs, and caecal contents evacuated into the large bowel. Both surfaces of the caecum were stroked, 45 times on each side, with a #10 scalpel blade to produce erythema and punctated bleeding. Each stroke spanned the caecal diameter (approximately 1 cm), and extended along 1.5 cm of the caecal extremity. In only one case did this abrasion procedure cause sustained bleeding requiring ligation. Following 90 blade strokes, the integrity of the tissue was confirmed, and caecum and large bowel were replaced in the pelvis.
# The film was laid over the rectangular sidewall abrasion (except in the case of sham surgeries), covering the area of damaged tissue. The abraded caecum, relocated in its previous orientation, was than overlaid such that the entire sidewall wound and film were covered by it. Four tacking sutures were placed at the outer extremities of the abraded area of the caecum securing it to the intact peritoneal sidewall immediately outside the rectangular wound area. The abdomen was closed in two layers, and antibiotics administered intramuscularly before the animal regained consciousness.
# . Adhesions over, and adjacent to the caecum were rated according to the following findings: 0: No adhesions connecting caecum to sidewall wound; 1: Filmy or stranded were separable by blunt dissection; 2: Cohesive adhesions attaching the caecum to the sidewall were separable by aggressive blunt dissection; 3: Adhesions inseparable without cutting, or without tearing/damaging caecum. Fractions were assigned where a variety of ratings seemed applicable.
# [1] = test system: synoviocytes (HIG.82 rabbit); experiment: MTT proliferation/cytotoxicity assay, synoviocytes; type: cell-based; conditions: Oryctolagus cuniculus, 48 h, read-out: inhibitory concentration that gave 50% effect on proliferation (IC50), synoviocytes
# Procedure: (§1) Proliferation was determined using the MTT proliferation/cytotoxicity assay.
# (§2) On day one, 1500-2000 smooth muscle cells (A7r5 rat embryonic thoracic aorta) or synoviocytes (HIG.82 rabbit) were plated per well on a 96-well plate, leaving the first column free of cells (blank). The plate was placed back into the 37° C., CO2 incubator. The following day camptothecin was added at various concentrations. No drugs were added to the first column (blank) and the second column (untreated column) for control. The cells were exposed for 24, 48, and 72 hours. At the end of the exposure period, 50 μl of dimethylthiazol diphenyltetrazolium bromide salt (MTT) dissolved in media was added and allowed to incubate for 4 hours at 37° C. The medium was then aspirated and 200 μl of dimethyl sulfoxide was added. The plate was agitated for 30 minutes and the absorbance read at 562 nm. The optical density measurement was converted to number of cells using a standard plot of optical density with known number of cells and cell viability was expressed as % growth (this value is the % of the control cells).
# [2] = test system: smooth muscle cells (A7r5 rat embryonic thoracic aorta); experiment: MTT proliferation/cytotoxicity assay, smooth muscle cells; type: cell-based; conditions: A7R5, 48 h, read-out: inhibitory concentration that gave 50% effect on proliferation (IC50), smooth muscle cells
# Procedure: as §1, §2
# human neutrophils = experiment: Neutrophil chemiluminescence (neutrophil activation); type: cell-based; conditions: Homo sapiens, Neutrophil; activation by MSUM crystals; read-out: IC 50, inhibition of neutrophil chemiluminescence
# Procedure: Freshly prepared human neutrophils were incubated with the compound followed by stimulation of the cells with either plasma opsonized CPPD crystals, the bacterial chemoattractant, fMLP or the phorbol ester, PMA. Stimulation (or activation) of the cells induced superoxide anion generation which could be measured by the emission of light (chemiluminescence). Inhibition of neutrophil function was then determined by inhibition of chemiluminescence. Hanks buffered salt solution (HBSS) pH 7.4 was used throughout the study. All chemicals were purchased from Sigma Chemical Co. (St. Louis, Mo.) unless otherwise stated. All procedures were performed at 37° C. unless otherwise stated. CPPD (triclinic) crystals were prepared and characterized as previously reported (Jackson J K et al., J Rheumatol, 24: 341-348, 1996). The size distribution of the crystals was approximately 33% less than […]. Opsonization of crystals was carried out using 50% heparinized plasma and concentrations of 50 mg of CPPD in 1 mL of 50% plasma. Crystals were incubated with diluted plasma for 30 min at 37° C., centrifuged at 1000×g, then washed in HBSS and recentrifuged. Neutrophils were prepared from freshly collected, human, citrated whole blood. Briefly, 400 mL of blood were mixed with 80 mL of 4% dextran T500 (Pharmacia LKB, Biotechnology AB Uppsala, Sweden) in HBSS and allowed to settle for 1 h. Plasma was collected continuously and 5 mL applied to 5 mL Ficoll Paque (Pharmacia) in 15 mL polypropylene tubes (Corning, N.Y.). Following centrifugation at 500×g for 30 min, the neutrophil pellets were washed free of erythrocytes by 20 s of hypotonic shock. Neutrophils were resuspended in HBSS, kept on ice and used for experiments within 3 h. Neutrophil viability and purity was always greater than 90%.
# A stock solution of drug was diluted in DMSO to give various concentrations of drug. Equal volumes of these solutions were added to neutrophils at 5×10^6 cells per mL under mild vortexing to achieve final concentrations with a final DMSO concentration of 0.25%. This DMSO concentration found to have no effect on control cell responses. Cells were incubated for 15 minutes at 37° C. before addition to crystals, fMLP or PMA.
# Chemiluminescence studies were performed at a cell concentration of 5×10^6 cells per mL in HBSS with CPPD (50 mg/mL). In all experiments 0.5 mL of cells were added to 25 mg of CPPD or 1 uM fMLP (and 0.5 uM cytochalasin B) or 0.5 uM PMA in 1.5 ml Eppendorf tubes. To the tubes were added 10 uL of luminol dissolved in 25% DMSO in HBSS to give a final concentration of 1 μM and the samples were mixed to initiate neutrophil activation. Chemiluminescence was monitored using an LKB Luminometer (Model 1250) at 37° C. with shaking immediately prior to measurements to resuspend the crystals. Control tubes contained cells, drug and luminol (crystals absent).
# caspase 3 = experiment: Caspase 3 activation in neutrophils (caspACE assay system); type: cell-based, human
# Description: (§3) The inflammation associated with many forms of arthritis is thought to arise from the presence of large numbers of immune cells, such as neutrophils, in the synovial joints of humans. The extended inflammation associated with crystal induced arthritis arises from the interaction of neutrophils with crystals in the synovial joint. One reason the extended duration of the inflammation in this disease may be due to the inhibition of neutrophil apoptosis by crystals. This inhibition may result in the neutrophils remaining in the joint for extended periods. Compounds that overcome this crystal induced suppression of neutrophil apoptosis therefore allow the more rapid clearance of these cells from the joint with the appropriate abatement of inflammation. The process of apoptosis involves the endonuclease driven cleavage of DNA into fragments which may be visualized as a ladder of bands in an agarose gel electrophoresis experiment. Other assays that may be used include caspase 3 quantitation or measurements of cytoplasmic DNA concentration. […] Agents that inhibit caspase activation levels or reduce cytoplasmic DNA are pro-survival (potentially inflammatory) and agents that promote are pro-apoptotic and anti-inflammatory. The use of these methods and their role in neutrophil affected inflammation is described in detail in Tudan et al. J Rheumatol. 27 p 2463-72. 2000.
# (§4) Methods: Agarose gel banding/laddering of 180 base pairs: Neutrophils were separated from fresh human blood by standard methods (dextran sedimentation and ficoll paque centrifugation) and suspended in buffer at a concentration of 1×10^6 cells/ml. The cells were then incubated with crystals of calcium pyrophosphate dihydrate (CPPD) for 1 hours at 37° C. The cells were then incubated with or without camptothecin (0.1 uM) for 4 hours at 37° C. Neutrophil aliquots (1×10^6 cells) from different conditions were resuspended in 480 μl of lysis buffer (0.6% SDS, 10 mM Tris, 1 mM EDTA (pH 7.0)) and after vigorous mixing were allowed to sit on ice for 20 min after addition of 120 μl of 5M NaCl. In caspase 3 and DNA fragmentation assays a milder detergent (Triton) was used to lyse only the plasma membrane of the cells so that cytoplasmic contents (caspase 3 or DNA fragments) could be assayed. Samples were sedimented at 14,000 rpm at 4° C. for 20 min. The pellet was dried and resuspended in phenol:chloroform. Four hundred fifty μl of the upper phase was added to a new tube, which was then charged with 950 μl of […] and held at −20° C. for 10 min. The DNA was sedimented at 14,000 rpm (4° C.) and carefully washed in 75% ethanol without disturbing the pellet. The DNA was dried at 37° C. and then resuspended in 20 μl sample buffer (50% TBE with 1 μl of 1 ng/ml RNase A (Pharmacia)). The samples were vortexed and allowed to stand at 37° C. for 10 min. Five μl of loading dye (20% Ficoll Paque (Pharmacia), 0.1% bromophenol blue, 0.1% xylene cyanole) was added. Electrophoresis was carried out in 2% agarose at 80 mA, and the gel was then stained with ethidium bromide (Pharmacia) and photographed under U.V. illumination.
# Caspase 3 activation was assayed using a commercial kit for this enzyme (caspACE assay system, Promega Scientific) and cyotplasmic DNA was assayed using a commercial kit (Cell death detection ELISA-Boehringer—Mannheim).
# neutrophils = experiment: Cytoplasmic DNA fragmentation in neutrophils (Cell death detection ELISA); type: cell-based, human
# Description: as §3
# as §4, with “The samples were vortexed and allowed to stand at 37° C. for 10 min. Five μl of loading dye (20% Ficoll Paque (Pharmacia), 0.1% bromophenol blue, 0.1% xylene cyanole) was added. Electrophoresis was carried out in 2% agarose at 80 mA, and the gel was then stained with ethidium bromide (Pharmacia) and photographed under U.V. illumination.” left out
smiles,measurement,setting,value
COc1cc(/C=C/C(=O)CC(=O)/C=C/c2ccc(O)c(OC)c2)ccc1O [curcumin],"surgical adhesion formation, in words",surgical adhesions,no inhibition of adhesion formation
same,"surgical adhesion formation, in words",surgical adhesions; listed as circumin,no inhibitory effect on surgical adhesion formation in rats
O=C1C=CC(=O)c2c(O)cccc21 [juglone],pIC50,[1],5.37
same,pIC50,[2],5.70
same,IC50,human neutrophils,0.5 to 1 µg/mL
O=C1c2c(O)ccc(O)c2C(=O)c2c(NCCNCCO)ccc(NCCNCCO)c21 [mitoxantrone],caspase 3 activation in neutrophils,caspase 3,induced an increase in the activation of caspase 3 levels
same,cytoplasmic DNA fragments in neutrophils,neutrophils,significant increase in cytoplasmic DNA
COC(=O)[C@@H]1c2cc3c(c(O)c2[C@@H](O[C@@H]2O[C@@H](C)[C@H](OC)[C@@](C)(OC)[C@H]2OC)C[C@]1(C)O)C(=O)c1c(O)cc2c(c1C3=O)O[C@@H]1O[C@@]2(C)[C@H](O)[C@@H](N(C)C)[C@@H]1O [nogalamycin],caspase 3 activation in neutrophils,caspase 3,induced an increase in the activation of caspase 3 levels
